Where “and” joins values, the source holds several entries; their conditions need not be identical. Equal values may be shown once.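 Test compounds were applied to cells in 96-well plates for 48 hours at 5 doses. GI50 marks 50% less growth. TGI: concentration producing complete growth inhibition.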
Experiments:
Assay in all cases: NCI anticancer screen, dose series, 48 h
[1] = system: A498 renal
[2] = system: ACHN renal
[3] = system: CAKI-1 renal
[4] = system: HCT-116 colon
[5] = system: IGROV1 ovarian
[6] = system: NCI-H460 lung
[7] = system: OVCAR-5 ovarian
[8] = system: SF-268 CNS
[9] = system: SF-295 CNS
[10] = system: SK-MEL-28 melanoma

| SMILES | GI50 [1] [µM] | TGI [1] [µM] | GI50 [2] [µM] | TGI [2] | GI50 [3] [µM] | TGI [3] [µM] | GI50 [4] [µM] | TGI [4] [µM] | GI50 [5] [µM] | TGI [5] | GI50 [6] [µM] | TGI [6] [µM] | GI50 [7] [µM] | TGI [7] [µM] | GI50 [8] [µM] | TGI [8] [µM] | GI50 [9] [µM] | TGI [9] [µM] | GI50 [10] [µM] | TGI [10] [µM] |
| --- | --- | --- | --- | --- | --- | --- | --- | --- | --- | --- | --- | --- | --- | --- | --- | --- | --- | --- | --- | --- |
| CC(=O)OC1CCC2(C)C(=CCC3C4CC(CN5CC5)C(=O)C4(C)CCC32)C1 (configuration not stated) | 11.4 | 24.9 | 4.17 | 15.7 µM | 2.21 | 6.02 | 3.44 | 10.1 | 4.23 | 15.2 µM | 12.2 | 29.5 | 17.3 | 33.2 | 13.9 | 28.2 | 22 | > 55.4 | 13.5 | 27.3 |
| CC(C)=NO.CC(C)=NO.CC(C)=NO.CC(C)=NO.[Ti] |  |  | > 100 | > 100 µM | > 100 | > 100 |  |  | > 100 | > 100 µM | > 100 | > 100 | > 100 | > 100 | > 100 | > 100 | > 100 | > 100 | > 100 | > 100 |
| CCOC(=O)C1C(=O)C(=O)N2CCc3c([nH]c4ccccc34)C12 (configuration not stated) |  | > 100 |  |  |  | > 100 |  | > 100 |  | > 100 µM |  |  |  | > 100 |  | > 100 |  | > 100 |  | > 100 |
| CN1C/C(=C\c2ccco2)c2nc(N)nc(-c3ccco3)c2C1 |  | > 100 |  | > 100 µM |  | > 100 |  | > 100 |  | > 100 µM |  | > 100 |  | > 100 |  | > 100 |  | > 100 |  | > 100 |
| CC1=C2[C@@H](c3ccccc3)C3C=CC2(C=C3C(F)(F)F)N(C(=O)NC2CCCCC2)C1=O (some centres not stated) |  | > 100 |  | > 100 µM |  | > 100 |  | > 100 |  | > 100 µM |  | > 100 |  | > 100 |  | > 100 |  | > 100 |  | > 100 |
| NC1=NN(c2ccccc2)C(=O)C1/C(=N\NC(=O)c1cc2ccccc2cc1O)C(=O)Nc1ccc(Cl)cc1 (configuration not stated) |  | 98.1 |  | > 100 µM |  | > 100 |  | > 100 |  | 80.9 µM |  | > 100 |  | > 100 |  | 89.3 |  | > 100 |  | > 100 |
| CCn1c(SC)nnc1-c1cc2c([nH]c3ccccc32)c(-c2cccc(O)c2)n1 | 1.42 | 10.9 | 2.12 | 6.47 µM |  |  | 2.5 | 14 | 2.57 | 52 µM | 1.6 | 16.6 | 10 | 43.1 | 3.42 | 25.5 | 1.83 | 5.23 | 2.69 | 21 |
| O=NNc1nc(-c2ccccn2)nc2ccccc12 |  | > 100 |  | 42.5 µM |  | > 100 |  | 16.5 |  | > 100 µM |  | > 100 |  | > 100 |  | > 100 |  | > 100 |  | > 100 |
| OCCn1c(-c2ccncc2)c(-c2ccc(F)cc2)c2ncccc21 | > 20.3 | > 25 | 24.8 | > 25 µM | > 25 | > 25 | > 25 | > 25 | > 25 | > 25 µM | > 25 | > 25 | > 25 | > 25 | > 25 | > 25 | > 25 | > 25 | > 25 | > 25 |
| Cc1cc(C2(c3cc(C)c(O)c4ncccc34)OC(=O)c3ccccc32)c2cccnc2c1O | 12.3 | > 100 |  | 1.17 µM and 1.45 µM |  | 1.07 |  | > 100 |  | 7.94 µM and 21.9 µM |  | 0.203 |  | > 100 |  |  | 0.012 | 21.3 | > 100 | > 100 |
| Cc1cc2c(=O)cc(-c3ccncc3)oc2c(C(=O)O)c1C |  |  |  | > 100 µM |  |  |  | > 100 |  | > 100 µM |  | > 100 |  | > 100 |  | > 100 |  | > 100 |  | > 100 |
| N#Cc1c(N/N=C/c2c(Cl)cccc2Cl)nc(N)nc1N1CCCC1 | 0.502 | 3.18 | 3.18 | > 100 µM | 1.29 | > 100 | 1.01 | 16.8 | 0.783 | 97.3 µM |  |  | 8.31 | > 100 | > 100 | > 100 | 1.02 | > 100 | 16.4 | > 100 |
| Nc1nc(N)c(-c2ccccc2)c(C(=O)Nc2nccs2)n1 |  |  |  | > 100 µM |  | > 100 |  | > 100 |  | > 100 µM |  | > 100 |  | > 100 |  | > 100 |  | > 100 |  | > 100 |
| Oc1ccc(CCNc2nc3ccccc3c3[nH]c4ccccc4c23)cc1 | 11.5 | 23.8 | 1.27 | 2.52 µM | 1.59 | 3.76 | 1.22 | 2.89 |  |  |  |  | 2.89 | 7.18 | 1.71 | 5.01 | 1.38 | 2.87 | 1.61 | 2.98 |
| CN(C)c1ccc(/C=C2\Cc3ccccc3C2=O)cc1Br |  | > 100 |  | > 100 µM |  | > 100 |  |  |  | > 100 µM |  | > 100 |  | > 100 |  | > 100 |  | > 100 |  | > 100 |
| O=[N+]([O-])C1(CO)COC(CCc2ccccc2)OC1 (configuration not stated) |  |  |  | > 100 µM |  |  |  | > 100 |  | > 100 µM |  | > 100 |  | > 100 |  |  |  | > 100 |  | > 100 |
| NC1CC(n2ccc(=O)[nH]c2=O)OC1C(O)CO (configuration not stated) |  |  |  | > 100 µM |  |  |  | > 100 |  | > 100 µM |  | > 100 |  | > 100 |  | > 100 |  | > 100 |  | > 100 |
| Clc1ccc(N=CNc2ccc(-c3nc4ccccc4[nH]3)cc2)cc1 |  |  | > 100 | > 100 µM | 0.827 | 42.5 | > 100 | > 100 | > 100 | > 100 µM | 17.7 | > 100 | > 100 | > 100 | 19.6 | > 100 | 6.18 | > 100 | 22.8 | 63.6 |

— PubChem BioAssay (NCI)
